In ChEMBL document CHEMBL3526033, “Identification of human liver cytochrome P450 enzymes involved in the metabolism of SCH 530348 (Vorapaxar), a potent oral thrombin protease-activated receptor 1 antagonist” (Drug Metab Dispos, 2011):

Key:
Format in all cases: ADME
Cytochrome P450 3A4 = Cytochrome P450 3A4 (Homo sapiens, UniProt P08684); assay: Activity of human recombinant CYP3A4 assessed as enzyme-mediated ((4aR,6R)-9-{2-[(1R,4S)-5-((S)-3-Fluoro-phenyl)-pyridin-2-yl]-vinyl}-1-methyl-3-oxo-dodecahydro-naphtho[2,3-c]furan-6-yl)-carbamic acid(R)-2-hydroxy-ethyl ester formation at 10 uM after 120 mins by LC-MS/MS analysis in presence of astemizole; conditions: 2 h
[1] = Drug metabolism in human liver microsomes assessed as compound remaining at 10 uM after 120 mins by LC-MS/MS analysis in presence of NADPH; conditions: read-out: Compound recovery
Liver microsome [2] = assay: Drug metabolism in human liver microsomes assessed as (3R,3aS,4S,4aR,7R,8aR,9aR)-7-amino-4-((E)-2-(5-(3-fluorophenyl)pyridin-2-yl)vinyl)-3-methyldecahydronaphtho[2,3-c]furan-1(3H)-one formation at 10 to 25 uM after 120 mins by LC-MS/MS analysis in presence of alpha-napthoflavone; conditions: 2 h
Liver microsome [3] = assay: Drug metabolism in human liver microsomes assessed as (3R,3aS,4S,4aR,7R,8aR,9aR)-7-amino-4-((E)-2-(5-(3-fluorophenyl)pyridin-2-yl)vinyl)-3-methyldecahydronaphtho[2,3-c]furan-1(3H)-one formation at 10 to 25 uM after 120 mins by LC-MS/MS analysis in presence of sulfaphenazole; conditions: 2 h
Cytochrome P450 2C8 = Cytochrome P450 2C8 (Homo sapiens, UniProt P10632); assay: Activity of human recombinant CYP2C8 assessed as enzyme-mediated drug metabolism treated with 25 uM vorapaxar after 120 mins by LC-MS/MS analysis in presence of NADPH; conditions: 2 h
Cytochrome P450 1A2 = target: T1, Cytochrome P450 1A2 (Homo sapiens, UniProt P05177); assay: Activity of human recombinant CYP1A2 assessed as enzyme-mediated drug metabolism treated with 25 uM vorapaxar after 120 mins by LC-MS/MS analysis in presence of NADPH; conditions: 2 h
T1 sequence (P05177 whole entry): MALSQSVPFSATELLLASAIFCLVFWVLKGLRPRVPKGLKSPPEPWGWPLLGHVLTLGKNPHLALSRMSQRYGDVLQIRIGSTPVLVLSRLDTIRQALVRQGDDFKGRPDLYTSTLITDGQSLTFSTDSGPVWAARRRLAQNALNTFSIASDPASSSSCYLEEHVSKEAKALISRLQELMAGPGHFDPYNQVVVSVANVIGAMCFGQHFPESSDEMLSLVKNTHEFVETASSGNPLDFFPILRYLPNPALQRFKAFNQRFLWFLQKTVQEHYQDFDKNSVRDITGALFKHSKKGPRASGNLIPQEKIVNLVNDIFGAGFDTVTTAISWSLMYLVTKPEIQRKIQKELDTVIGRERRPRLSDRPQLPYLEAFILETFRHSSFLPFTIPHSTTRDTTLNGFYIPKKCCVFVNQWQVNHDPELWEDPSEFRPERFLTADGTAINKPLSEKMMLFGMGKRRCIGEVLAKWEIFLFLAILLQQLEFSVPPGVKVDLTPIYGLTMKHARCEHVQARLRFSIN

Cytochrome P450 1A1 = target: T2, Cytochrome P450 1A1 (Homo sapiens, UniProt P04798); assay: Activity of human recombinant CYP1A1 assessed as enzyme-mediated drug metabolism treated with 25 uM vorapaxar after 120 mins by LC-MS/MS analysis in presence of NADPH; conditions: 2 h
T2 sequence (P04798 whole entry): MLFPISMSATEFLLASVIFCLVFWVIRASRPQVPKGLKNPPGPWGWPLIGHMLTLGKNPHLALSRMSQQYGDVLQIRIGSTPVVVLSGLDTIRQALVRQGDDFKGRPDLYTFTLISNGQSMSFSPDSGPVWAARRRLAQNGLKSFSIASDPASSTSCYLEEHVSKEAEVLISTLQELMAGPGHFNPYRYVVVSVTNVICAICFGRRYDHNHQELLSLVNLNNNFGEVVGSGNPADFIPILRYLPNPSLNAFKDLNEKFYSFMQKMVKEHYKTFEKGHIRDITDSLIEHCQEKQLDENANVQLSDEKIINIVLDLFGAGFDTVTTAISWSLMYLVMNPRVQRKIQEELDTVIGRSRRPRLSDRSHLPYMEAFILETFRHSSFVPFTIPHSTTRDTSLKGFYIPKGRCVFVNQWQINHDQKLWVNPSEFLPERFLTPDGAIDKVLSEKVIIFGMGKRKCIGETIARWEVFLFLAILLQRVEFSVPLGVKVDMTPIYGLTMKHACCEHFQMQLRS

Cytochrome P450 2B6 = target: T3, Cytochrome P450 2B6 (Homo sapiens, UniProt P20813); assay: Activity of human recombinant CYP2B6 assessed as enzyme-mediated drug metabolism treated with 25 uM vorapaxar after 120 mins by LC-MS/MS analysis in presence of NADPH; conditions: 2 h
T3 sequence (P20813 whole entry): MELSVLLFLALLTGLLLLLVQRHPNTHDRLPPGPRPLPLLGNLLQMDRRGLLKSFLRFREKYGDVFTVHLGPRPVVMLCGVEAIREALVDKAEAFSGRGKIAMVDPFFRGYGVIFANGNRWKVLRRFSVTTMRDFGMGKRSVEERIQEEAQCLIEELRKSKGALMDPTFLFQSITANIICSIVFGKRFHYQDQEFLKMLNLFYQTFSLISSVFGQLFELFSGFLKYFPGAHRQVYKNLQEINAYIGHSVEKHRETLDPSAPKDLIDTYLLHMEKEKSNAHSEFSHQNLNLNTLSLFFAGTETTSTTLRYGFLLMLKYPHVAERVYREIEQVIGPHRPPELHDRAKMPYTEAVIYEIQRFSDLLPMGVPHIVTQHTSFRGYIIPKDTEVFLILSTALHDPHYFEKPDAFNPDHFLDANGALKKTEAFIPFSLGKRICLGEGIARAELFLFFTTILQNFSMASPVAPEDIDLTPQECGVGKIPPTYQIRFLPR

Cytochrome P450 3A5 = Cytochrome P450 3A5 (Homo sapiens, UniProt P20815); assay: Activity of human recombinant CYP3A5 assessed as enzyme-mediated 2-hydroxyethyl (1R,3aR,4aR,6R,8aR,9S,9aS)-9-((E)-2-(5-(3-fluorophenyl)pyridin-2-yl)vinyl)-1-methyl-3-oxododecahydronaphtho[2,3-c]furan-6-ylcarbamate formation at 25 uM after 120 mins by LC-MS/MS analysis in presence of NADPH; conditions: 2 h
Chain of Cytochrome P450 3A5 (P20815 whole entry): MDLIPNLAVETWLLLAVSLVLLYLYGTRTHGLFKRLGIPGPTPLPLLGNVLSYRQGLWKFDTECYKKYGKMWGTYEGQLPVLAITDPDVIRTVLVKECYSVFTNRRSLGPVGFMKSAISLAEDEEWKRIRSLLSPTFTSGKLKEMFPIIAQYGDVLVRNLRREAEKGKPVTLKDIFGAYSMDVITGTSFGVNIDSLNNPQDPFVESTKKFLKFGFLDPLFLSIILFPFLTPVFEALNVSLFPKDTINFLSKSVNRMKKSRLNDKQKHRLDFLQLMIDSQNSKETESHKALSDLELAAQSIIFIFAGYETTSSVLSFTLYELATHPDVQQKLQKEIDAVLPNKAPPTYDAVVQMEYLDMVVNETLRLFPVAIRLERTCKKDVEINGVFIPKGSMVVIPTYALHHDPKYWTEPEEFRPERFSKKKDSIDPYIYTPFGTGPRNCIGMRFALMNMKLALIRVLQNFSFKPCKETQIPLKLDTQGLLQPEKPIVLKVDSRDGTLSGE

Chain of Cytochrome P450 3A4 (P08684 whole entry): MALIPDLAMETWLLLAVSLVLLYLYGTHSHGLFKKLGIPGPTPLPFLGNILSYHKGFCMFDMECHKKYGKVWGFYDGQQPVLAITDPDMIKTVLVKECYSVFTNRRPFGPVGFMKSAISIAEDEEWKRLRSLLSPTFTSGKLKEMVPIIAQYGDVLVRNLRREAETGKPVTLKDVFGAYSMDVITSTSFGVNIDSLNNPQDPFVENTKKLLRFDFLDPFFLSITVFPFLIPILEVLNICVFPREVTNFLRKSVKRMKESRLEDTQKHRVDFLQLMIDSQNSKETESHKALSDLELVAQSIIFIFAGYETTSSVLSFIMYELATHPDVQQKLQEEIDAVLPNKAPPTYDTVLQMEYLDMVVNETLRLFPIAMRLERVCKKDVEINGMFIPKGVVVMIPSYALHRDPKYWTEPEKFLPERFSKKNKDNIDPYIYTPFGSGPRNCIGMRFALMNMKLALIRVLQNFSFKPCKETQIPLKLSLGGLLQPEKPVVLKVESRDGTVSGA
Chain of Cytochrome P450 2C8 (P10632 whole entry): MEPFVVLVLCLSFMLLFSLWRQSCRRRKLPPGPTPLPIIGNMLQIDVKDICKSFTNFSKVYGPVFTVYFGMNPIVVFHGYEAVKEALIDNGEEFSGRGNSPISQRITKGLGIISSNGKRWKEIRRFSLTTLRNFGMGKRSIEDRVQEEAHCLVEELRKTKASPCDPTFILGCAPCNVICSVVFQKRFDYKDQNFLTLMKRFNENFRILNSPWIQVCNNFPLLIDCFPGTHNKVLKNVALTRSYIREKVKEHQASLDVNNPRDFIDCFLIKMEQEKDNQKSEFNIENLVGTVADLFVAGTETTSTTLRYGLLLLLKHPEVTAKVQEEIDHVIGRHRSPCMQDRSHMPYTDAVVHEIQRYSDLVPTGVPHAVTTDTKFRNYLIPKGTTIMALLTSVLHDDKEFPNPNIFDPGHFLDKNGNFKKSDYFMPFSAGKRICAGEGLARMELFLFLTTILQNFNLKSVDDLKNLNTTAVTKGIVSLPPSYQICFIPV

Q: With CCOC(=O)N[C@@H]1CC[C@@H]2[C@@H](C1)C[C@H]1C(=O)O[C@H](C)[C@H]1[C@H]2/C=C/c1ccc(-c2cccc(F)c2)cn1 [VORAPAXAR] as the compound, how does the “inhibition (INH)” value (Cytochrome P450 3A4) read?
A: The value was 76%.

Q: What about the remaining at 2 h, 10 µM [1] of the same compound?
A: Its remaining at 2 h, 10 µM is 92.7%.

Q: And the Drug metabolism (Liver microsome [2])?
A: The Drug metabolism was “metabolite_detected”.

Q: What about the Drug metabolism (Liver microsome [3]) of the same compound?
A: Its Drug metabolism is “metabolite_detected”.

Q: Which Drug metabolism (Cytochrome P450 2C8) does the source give for C[C@H]1OC(=O)[C@@H]2C[C@@H]3C[C@H](NC(=O)OCCO)CC[C@H]3[C@H](/C=C/c3ccc(-c4cccc(F)c4)cn3)[C@H]12 here?
A: Its Drug metabolism is “metabolite_detected”.

Q: And the Drug metabolism (Cytochrome P450 1A2)?
A: Its Drug metabolism is “metabolite_detected”.

Q: What about the Drug metabolism (Cytochrome P450 1A1) of the same compound?
A: The Drug metabolism was “metabolite_detected”.

Q: And the Drug metabolism (Cytochrome P450 2B6)?
A: Its Drug metabolism is “metabolite_detected”.

Q: Which Drug metabolism (Cytochrome P450 3A5) does the source give for CCOC(=O)N[C@@H]1CC[C@@H]2[C@@H](C1)C[C@H]1C(=O)O[C@H](C)[C@H]1[C@H]2/C=[14CH]/c1ccc(-c2cccc(F)c2)cn1 here?
A: Its Drug metabolism is “metabolite_detected”.
